Data: US10472346B2, “Potent gamma-secretase modulators” (The General Hospital Coporation, priority 2014, dated 2019)

What was measured:
[1] = test system: APP-CTF (C-terminal fragment); experiment: Accumulation of APP-CTFs in brain extracts (immunoblot, anti-APP carboxyl-terminal antibody); assay type: in vivo; conditions: administered doses of 5, 25 or 50 mg/kg
Experimental: FIG. 7: Protein blots of indicated proteins from subjects administered vehicle and Compound 1 at doses of 5, 25 and 50 mg/kg.
Brain extracts which were prepared using 1.0% SDS run on SDS-PAGE, transferred to PVDF membranes and immunoblots were performed using an anti-APP carboxyl-terminal antibody.

[2] = test system: Aβ42 levels; experiment: Effects of 9 days treatment on rat plasma and CSF Aβ42 levels; assay type: in vivo, male Sprague-Dawley rat; conditions: for reduction in CSF Aβ42 levels: rat CSF; for reduction in plasma Aβ42 levels: rat plasma
Experimental: FIG. 5: The effects of Compound 1 after 9-days treatment on Aβ42 levels in male Sprague-Dawley rat plasma A) where the reduction in plasma levels was 81%, 93% and 97%, for dosages of 5, 25, and 50 mg/kg, respectively and male Sprague-Dawley rat CSF B) where the reduction in CSF levels was 43%, 73% and 86%, for dosages of 5, 25, and 50 mg/kg, respectively.
Effects of Compound 1 (9 Days Treatment) on Rat Plasma and CSF Aβ42 Levels. The effects of Compound 1 after 9-days treatment on Aβ42 levels in rat plasma and CSF are depicted in FIG. 5A (plasma) and FIG. 5B (CSF). For FIG. 5A, the reduction in plasma levels was 81%, 93% and 97%, for dosages of 5, 25, and 50 mg/kg, respectively. For FIG. 5B, the reduction in CSF levels was 43%, 73% and 86%, for dosages of 5, 25, and 50 mg/kg, respectively.

[3] = test system: Aβ40 levels; experiment: Effects of 7 days treatment on mouse plasma and brain Aβ40 levels; assay type: in vivo, male C57BL/6J mouse; conditions: for percent reduction of Aβ40 levels in brain: mouse brain; for percent reduction of Aβ40 levels in plasma: mouse plasma
Experimental: FIG. 3: The effects of Compound 1 after 7-days treatment on Aβ40 levels in male C57BL/6J mouse plasma A) (plasma) where the percent reduction was 62%, 81% and 91% for dosages of 10, 25, and 50 mg/kg, respectively and male C57BL/6J mouse brain B) where the percent reduction was 46%, 69% and 82% for dosages of 10, 25, and 50 mg/kg, respectively.
Effects of Compound 1 (7 Days Treatment) on Mouse Plasma and Brain Aβ40 Levels. The effects of Compound 1 after 7-days treatment on Aβ40 levels in mouse plasma and brain are depicted in FIG. 3A (plasma) and FIG. 3B (brain). For FIG. 3A, the percent reduction was 62%, 81% and 91% for dosages of 10, 25, and 50 mg/kg, respectively. For FIG. 3B, the percent reduction was 46%, 69% and 82% for dosages of 10, 25, and 50 mg/kg, respectively.

[4] = test system: Aβ42 levels; experiment: Effects of 7 days treatment on mouse plasma and brain Aβ42 levels; assay type: in vivo, male C57BL/6J mouse; conditions: for percent reduction of Aβ42 levels in brain: mouse brain; for percent reduction of Aβ42 levels in plasma: mouse plasma
Experimental: FIG. 2: The effects of Compound 1 after 7-days treatment on Aβ42 levels in male C57BL/6J mouse plasma A) (plasma) where the percent reduction was 76%, 91% and 96% for dosages of 10, 25, and 50 mg/kg, respectively and in male C57BL/6J mouse brain B) where the percent reduction was 36%, 69% and 85% for dosages of 10, 25, and 50 mg/kg, respectively.
Effects of Compound 1 (7 Days Treatment) on Mouse Plasma and Brain Aβ42 Levels. The effects of Compound 1 after 7-days treatment on Aβ42 levels in mouse plasma and brain are depicted in FIG. 2A (plasma) and FIG. 2B (brain). For FIG. 2A, the percent reduction was 76%, 91% and 96% for dosages of 10, 25, and 50 mg/kg, respectively. For FIG. 2B, the percent reduction was 36%, 69% and 85% for dosages of 10, 25, and 50 mg/kg, respectively.

[5] = test system: Notch processing; experiment: Notch processing in transfected H4-APP751 cells (Western blot, Myc antibody, NICD); assay type: cell-based, human; conditions: H4-APP751 cells transfected with the NAE construct, different concentrations, 24 hrs
Description: Cells were harvested 48 hrs post transfection and applied to Western blotting analysis. Myc antibody was utilized to assess the NAED and NICD tagged with Myc on their N-termini. β-Actin was utilized as the loading control.
Cells were harvested 48 hrs post transfection and subjected to Western blotting analysis. Myc antibody was utilized to assess the NδED and NICD tagged with Myc on their N-termini.
Stable H4 human neuroglioma cells over-expressing human APP751, or H4-APP751 cells, were transfected with the NAE construct, and then treated with different concentrations SGSM Compound 1 (Lanes 1-6) or DAPT (Lanes 7-10) for another 24 hrs and are shown in FIG. 9. Cells were harvested 48 hrs post transfection and applied to Western blotting analysis. Myc antibody was utilized to assess the NAED and NICD tagged with Myc on their N-termini β-Actin was utilized as the loading control.
Stably-transfected H4 human neuroglioma cells over-expressing human APP751 (H4-APP751) cells, were transfected with the Notch NδED construct, and then treated with vehicle, or different doses of GSMs (40 nM, 200 nM, 1000 nM, and 5000 nM) for 24 hrs. Cells were harvested 48 hrs post transfection and subjected to Western blotting analysis.

[6] = test system: Aβ40 levels; experiment: Effects of 9 days treatment on rat plasma and CSF Aβ40 levels; assay type: in vivo, male Sprague-Dawley rat; conditions: for reduction in CSF Aβ40 levels: rat CSF; for reduction in plasma Aβ40 levels: rat plasma
Experimental: FIG. 6: The effects of Compound 1 after 9-days treatment on Aβ40 levels in male Sprague-Dawley rat plasma A) where the reduction in plasma levels was 61%, 89% and 95%, for dosages of 5, 25, and 50 mg/kg, respectively and in male Sprague-Dawley rat CSF B) where the reduction in CSF levels was 47%, 75% and 85%, for dosages of 5, 25, and 50 mg/kg, respectively.
Effects of Compound 1 (9 Days Treatment) on Rat Plasma and CSF Aβ40 Levels. The effects of Compound 1 after 9-days treatment on Aβ40 levels in rat plasma and CSF are depicted in FIG. 6A (plasma) and FIG. 6B (CSF). For FIG. 6A, the reduction in plasma levels was 61%, 89% and 95%, for dosages of 5, 25, and 50 mg/kg, respectively. For FIG. 6B, the reduction in CSF levels was 47%, 75% and 85%, for dosages of 5, 25, and 50 mg/kg, respectively.

COc1nc(-c2cc(C)c(N[C@@H](C)c3ccc(F)cc3)nn2)ccc1-n1cnc(C)c1 [Compound 1, (S)—N-(1-(4-fluorophenyl)ethyl)-6-(6-methoxy-5-(4-methyl-1H-imidazol-1-yl)pyridin-2-yl)-4-methylpyridazin-3-amine]
accumulation of APP-CTF (C-terminal fragment) [1]: does not cause accumulation of APP-CTF
reduction in CSF Aβ42 levels ([2]; 5 mg/kg): 43%
reduction in CSF Aβ42 levels ([2]; 25 mg/kg): 73%
reduction in CSF Aβ42 levels ([2]; 50 mg/kg): 86%
reduction in plasma Aβ42 levels ([2]; 5 mg/kg): 81%
reduction in plasma Aβ42 levels ([2]; 25 mg/kg): 93%
reduction in plasma Aβ42 levels ([2]; 50 mg/kg): 97%
percent reduction of Aβ40 levels in brain ([3]; 10 mg/kg): 46%
percent reduction of Aβ40 levels in brain ([3]; 25 mg/kg): 69%
percent reduction of Aβ40 levels in brain ([3]; 50 mg/kg): 82%
percent reduction of Aβ40 levels in plasma ([3]; 10 mg/kg): 62%
percent reduction of Aβ40 levels in plasma ([3]; 25 mg/kg): 81%
percent reduction of Aβ40 levels in plasma ([3]; 50 mg/kg): 91%
percent reduction of Aβ42 levels in brain ([4]; 10 mg/kg): 36%
percent reduction of Aβ42 levels in brain ([4]; 25 mg/kg): 69%
percent reduction of Aβ42 levels in brain ([4]; 50 mg/kg): 85%
percent reduction of Aβ42 levels in plasma ([4]; 10 mg/kg): 76%
percent reduction of Aβ42 levels in plasma ([4]; 25 mg/kg): 91%
percent reduction of Aβ42 levels in plasma ([4]; 50 mg/kg): 96%
Notch processing (NICD, Western blot) [5]: did not inhibit Notch processing
reduction in CSF Aβ40 levels ([6]; 5 mg/kg): 47%
reduction in CSF Aβ40 levels ([6]; 25 mg/kg): 75%
reduction in CSF Aβ40 levels ([6]; 50 mg/kg): 85%
reduction in plasma Aβ40 levels ([6]; 5 mg/kg): 61%
reduction in plasma Aβ40 levels ([6]; 25 mg/kg): 89%
reduction in plasma Aβ40 levels ([6]; 50 mg/kg): 95%
